In PubChem BioAssay (NCI):
Where “and” joins values, the source holds several entries; their conditions need not be identical. Identical values can stand only once.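 96-well plates; 48 h exposure; 5 concentrations. Endpoints by linear interpolation between flanking doses. Not reached: highest tested concentration assigned. The concentration for 50% growth inhibition is given as GI50. At the TGI there is no net growth.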 Where a SMILES comes first, the peptide text is derived from it. [ ]: non-standard residue; d: D form. NMeY = CN[C@@H](Cc1ccc(O)cc1)C(=O)O; dNMeF = CN[C@H](Cc1ccccc1)C(=O)O; Sar = CNCC(=O)O

What follows are compounds tested on MDA-MB-468 breast (assay: NCI tumour cell line growth inhibition, 48 h).

First: O=C1c2ccccc2-c2n[nH]c3cccc1c23
Second: COc1ccc(-c2cc(-c3cn[nH]c3-c3ccccn3)ccn2)cc1
The GI50 of the first is lower: 17.3 µM for the first, over 25 µM for the second.

Going from O=c1oc2ccc(Cl)cc2c(=O)n1-c1cc(C(F)(F)F)cc(C(F)(F)F)c1 to CNC(=O)c1cc(-n2ccc3cc(NC(=O)Nc4ccc(N5CCN(C)CC5)c(C(F)(F)F)c4)ccc32)ccn1, the GI50 rises from 0.236 µM to 3.48 µM (15-fold).

Going from CC[C@H](C)[C@H](NC(=O)Nc1ccccc1)C(=O)N(C)[C@H](C[C@@H](OC(C)=O)c1nc(C(=O)N[C@@H](Cc2ccccc2)C[C@H](C)C(=O)OC)cs1)C(C)C to CCOC(=O)Cn1c(C)c(/C=N/NC(=O)c2cc3c(ccc4ccccc43)o2)c2ccccc21, the GI50 falls from 0.514 µM to 0.326 µM (1.6-fold).

CCN(C(=O)CCl)C(C)(C)C(SSSC(c1ccc(Cl)cc1)C(C)(C)N(CC)C(=O)CCl)c1ccc(Cl)cc1 (configuration not stated) and O=C1Nc2cc(Cl)ccc2/C1=C\c1ccc(OCc2ccc(Br)cc2F)cc1 are within 1.5-fold of each other in GI50: 1.97 µM for the first, 2.13 µM for the second.

Cc1cc2c3ccccc3ccc2[n+]2ccccc12 and Cc1ccc(N=Nc2c(N)nn(-c3ccccc3)c2N)cc1 are within 1.5-fold of each other in GI50: 0.524 µM for the first, 0.613 µM for the second.

First: Nc1nc(N)c2c(ccc3nccc32)[nH]1
Second: C#C[C@@]1(O)[C@@H](CO)O[C@@H](n2ccc3c(N)ncnc32)[C@@H]1O
The GI50 of the first is 2.5-fold higher: 3.28 µM for the first, 1.3 µM for the second.

First: COc1ccc2[nH]c(=O)c(/C=C/C(=O)/C=C/c3ccc(O)c(OC)c3)cc2c1
Second: COc1ccc(/C=C/C(=O)c2ccc3cc(OC)c(OC)cc3c2)cc1OC
The GI50 of the first is 2-fold lower: 1.37 µM for the first, 2.68 µM for the second.

First: C/C(=N\NC(=O)c1ccccc1O)c1cccc(/C(C)=N/NC(=O)c2ccccc2O)n1
Second: N#Cc1cccc(/C=C(/C(=O)c2ccccc2)c2ccccc2)c1
The GI50 of the first is 7.3-fold lower: 0.317 µM for the first, 2.3 µM for the second.

Compared with COc1ccc2c(c1)sc1nc(-c3ccccc3)c(-c3ccc(O)c(OC)c3)n12, C[C@H](Nc1ncnc2ccc(-c3cnc(Cl)c(NS(C)(=O)=O)c3)cc12)c1ccccc1 is 220-fold lower in GI50: 24.4 µM for the first, 0.111 µM for the second.

First: CC[C@H](C)[C@@H]1NC(=O)[C@H](Cc2ccc(O)cc2)N(C)C(=O)[C@H](Cc2ccccc2)NC(=O)CN(C)C(=O)[C@@H]2CCCN2C(=O)[C@@H](Cc2ccccc2)N(C)C(=O)[C@H](CC(C)C)NC1=O (cyclo(F[NMeY]IL[dNMeF]P[Sar]))
Second: C/C(=C(/c1ccc(O)cc1)c1ccc(OCCN2CCCCCC2)cc1)c1ccccc1
The GI50 of the first is 110-fold lower: 0.367 µM for the first, 41.2 µM for the second.

First: CC(=O)OC1CCC2(C)C(CCC3C4CC=C(C(C)=O)C4(C)OC(=O)CC32)C1 (configuration not stated)
Second: CO[C@H]1C[C@@H]2CC[C@@H](C)[C@@](O)(O2)C(=O)C(=O)N2CCCC[C@H]2C(=O)O[C@H]([C@H](C)C[C@@H]2CC[C@@H](OP(C)(C)=O)[C@H](OC)C2)CC(=O)[C@H](C)/C=C(\C)[C@@H](O)[C@@H](OC)C(=O)[C@H](C)C[C@H](C)/C=C/C=C/C=C/1C
The GI50 of the first is higher: 1.64 µM for the first, under 0.01 µM for the second.

Going from c1ccc(-c2nnc(Nc3ccc4c(c3)OCCO4)o2)c(NCc2ccncc2)c1 to Cc1ccc(-c2cc3nc(C(Cl)Cl)nc(-c4cccnc4)n3n2)cc1, the GI50 rises from 0.0953 µM to 0.407 µM (4.3-fold).

Going from Nc1c(C(=O)c2cccc(C#CCN3CCOCC3)c2)cnn1-c1ccc(F)cc1 to Nc1c(C(=O)c2cccc(CCC3(O)CCCC3)c2)cnn1-c1ccc(F)cc1, the GI50 falls from 9.82 µM to 5.97 µM (1.6-fold).

Compared with CC1(C)N=C(N)N=C(N)N1c1cccc(CCCCc2ccccc2)c1, CC1(C)CC(OCCCC[P+](c2ccccc2)(c2ccccc2)c2ccccc2)CC(C)(C)N1O is 2.2-fold higher in GI50: 0.149 µM for the first, 0.331 µM for the second.

First: ClC1=NC(Cl)C(Cl)=N/C1=N\c1ncn[nH]1 (configuration not stated)
Second: N#CSCc1c(Cl)cccc1Cl
The GI50 of the first is 2.4-fold lower: 1.6 µM for the first, 3.82 µM for the second.

Compared with CN(C)C(=O)c1cc2cnc(Nc3ccc(-c4csc5c(=O)cc(N6CCNCC6)oc45)cc3)nc2n1C1CCCC1, CN1CCN(Cc2ccc(NC(=O)c3nc4ccc5[nH]ncc5c4c4c3CCC4)cc2C(F)(F)F)CC1 is 1.9-fold higher in GI50: 0.482 µM for the first, 0.936 µM for the second.

Compared with Cc1ccc2c(Nc3cccc(Cl)c3F)ncc(NC(=O)c3csc4c(N)ncnc34)c2c1, Cc1ncc(C(=O)Nc2ccc(CN3CCN(C)CC3)c(C(F)(F)F)c2)cc1C#Cc1cnc(N)c2ncccc12 is lower in GI50: over 100 µM for the first, 1.1 µM for the second.

Compared with COc1cccc(-n2ncc3c(N/N=C/c4ccc(S(C)(=O)=O)cc4)ncnc32)c1, CCOC(=O)c1ccc(Nc2sc(C(=O)c3cccc([N+](=O)[O-])c3)c(N)c2C#N)cc1 is 16-fold lower in GI50: 3.66 µM for the first, 0.222 µM for the second.

CC1(O)CC2(O)C=CC3=C(C(=O)c4cccc(O)c4C3=O)C2(O)C(=O)C1O (configuration not stated) and COc1cc(Cn2ccc3c2-c2oncc2CC3)cc(OC)c1 are within 1.5-fold of each other in GI50: 0.735 µM for the first, 0.84 µM for the second.

First: O=C(NC(=S)NNC(=S)NNc1ccccc1)c1ccccc1
Second: ICCC(c1ccccc1)(c1ccccc1)c1ccccc1
The GI50 of the first is 2.8-fold higher: 8.92 µM for the first, 3.17 µM for the second.

Going from CCCCCCCCCCCC[n+]1ccccc1 to C=CC(=O)N1CCC([C@@H]2CCNc3c(C(N)=O)c(-c4ccc(Oc5ccccc5)cc4)nn32)CC1, the GI50 falls from 0.252 µM to 0.057 µM (4.4-fold).

With Nc1ccn(C2CC(O)C(CO)O2)c(=O)n1 (configuration not stated) the GI50 was over 5000 µM.

O=C1c2ccccc2-c2n[nH]c3cccc1c23 and COc1ccc(-c2cc(-c3cn[nH]c3-c3ccccn3)ccn2)cc1 cannot be ordered by TGI: over 100 µM for the first, over 25 µM for the second.

First: O=c1oc2ccc(Cl)cc2c(=O)n1-c1cc(C(F)(F)F)cc(C(F)(F)F)c1
Second: CNC(=O)c1cc(-n2ccc3cc(NC(=O)Nc4ccc(N5CCN(C)CC5)c(C(F)(F)F)c4)ccc32)ccn1
The TGI of the first is 10-fold lower: 0.754 µM for the first, 7.57 µM for the second.

First: CC[C@H](C)[C@H](NC(=O)Nc1ccccc1)C(=O)N(C)[C@H](C[C@@H](OC(C)=O)c1nc(C(=O)N[C@@H](Cc2ccccc2)C[C@H](C)C(=O)OC)cs1)C(C)C
Second: CCOC(=O)Cn1c(C)c(/C=N/NC(=O)c2cc3c(ccc4ccccc43)o2)c2ccccc21
The TGI of the first is 5.4-fold higher: 7.22 µM for the first, 1.34 µM for the second.

CCN(C(=O)CCl)C(C)(C)C(SSSC(c1ccc(Cl)cc1)C(C)(C)N(CC)C(=O)CCl)c1ccc(Cl)cc1 (configuration not stated) and O=C1Nc2cc(Cl)ccc2/C1=C\c1ccc(OCc2ccc(Br)cc2F)cc1 are within 1.5-fold of each other in TGI: 5.39 µM for the first, 5.21 µM for the second.

Going from Cc1cc2c3ccccc3ccc2[n+]2ccccc12 to Cc1ccc(N=Nc2c(N)nn(-c3ccccc3)c2N)cc1, the TGI rises from 2.13 µM to over 100 µM.

Going from Nc1nc(N)c2c(ccc3nccc32)[nH]1 to C#C[C@@]1(O)[C@@H](CO)O[C@@H](n2ccc3c(N)ncnc32)[C@@H]1O, the TGI falls from 21.3 µM to 3.33 µM (6.4-fold).

First: COc1ccc2[nH]c(=O)c(/C=C/C(=O)/C=C/c3ccc(O)c(OC)c3)cc2c1
Second: COc1ccc(/C=C/C(=O)c2ccc3cc(OC)c(OC)cc3c2)cc1OC
The TGI of the first is 2.2-fold lower: 4.58 µM for the first, 10.2 µM for the second.

Going from C/C(=N\NC(=O)c1ccccc1O)c1cccc(/C(C)=N/NC(=O)c2ccccc2O)n1 to N#Cc1cccc(/C=C(/C(=O)c2ccccc2)c2ccccc2)c1, the TGI falls from over 100 µM to 7.63 µM.

Going from COc1ccc2c(c1)sc1nc(-c3ccccc3)c(-c3ccc(O)c(OC)c3)n12 to C[C@H](Nc1ncnc2ccc(-c3cnc(Cl)c(NS(C)(=O)=O)c3)cc12)c1ccccc1, the TGI falls from over 100 µM to 0.841 µM.

Compared with CC[C@H](C)[C@@H]1NC(=O)[C@H](Cc2ccc(O)cc2)N(C)C(=O)[C@H](Cc2ccccc2)NC(=O)CN(C)C(=O)[C@@H]2CCCN2C(=O)[C@@H](Cc2ccccc2)N(C)C(=O)[C@H](CC(C)C)NC1=O (cyclo(F[NMeY]IL[dNMeF]P[Sar])), C/C(=C(/c1ccc(O)cc1)c1ccc(OCCN2CCCCCC2)cc1)c1ccccc1 is higher in TGI: 2.82 µM for the first, over 100 µM for the second.

First: CC(=O)OC1CCC2(C)C(CCC3C4CC=C(C(C)=O)C4(C)OC(=O)CC32)C1 (configuration not stated)
Second: CO[C@H]1C[C@@H]2CC[C@@H](C)[C@@](O)(O2)C(=O)C(=O)N2CCCC[C@H]2C(=O)O[C@H]([C@H](C)C[C@@H]2CC[C@@H](OP(C)(C)=O)[C@H](OC)C2)CC(=O)[C@H](C)/C=C(\C)[C@@H](O)[C@@H](OC)C(=O)[C@H](C)C[C@H](C)/C=C/C=C/C=C/1C
The TGI of the first is 4.6-fold lower: 3.74 µM for the first, 17.1 µM for the second.

Compared with c1ccc(-c2nnc(Nc3ccc4c(c3)OCCO4)o2)c(NCc2ccncc2)c1, Cc1ccc(-c2cc3nc(C(Cl)Cl)nc(-c4cccnc4)n3n2)cc1 is 4-fold higher in TGI: 0.528 µM for the first, 2.13 µM for the second.

Nc1c(C(=O)c2cccc(C#CCN3CCOCC3)c2)cnn1-c1ccc(F)cc1 and Nc1c(C(=O)c2cccc(CCC3(O)CCCC3)c2)cnn1-c1ccc(F)cc1 cannot be ordered by TGI: over 25 µM for the first, over 25 µM for the second.

Compared with CC1(C)N=C(N)N=C(N)N1c1cccc(CCCCc2ccccc2)c1, CC1(C)CC(OCCCC[P+](c2ccccc2)(c2ccccc2)c2ccccc2)CC(C)(C)N1O is 4.8-fold lower in TGI: 13.8 µM for the first, 2.87 µM for the second.

Compared with ClC1=NC(Cl)C(Cl)=N/C1=N\c1ncn[nH]1 (configuration not stated), N#CSCc1c(Cl)cccc1Cl is higher in TGI: 3.39 µM for the first, over 100 µM for the second.

CN(C)C(=O)c1cc2cnc(Nc3ccc(-c4csc5c(=O)cc(N6CCNCC6)oc45)cc3)nc2n1C1CCCC1 and CN1CCN(Cc2ccc(NC(=O)c3nc4ccc5[nH]ncc5c4c4c3CCC4)cc2C(F)(F)F)CC1 are within 1.5-fold of each other in TGI: 2.53 µM for the first, 2.08 µM for the second.

Going from Cc1ccc2c(Nc3cccc(Cl)c3F)ncc(NC(=O)c3csc4c(N)ncnc34)c2c1 to Cc1ncc(C(=O)Nc2ccc(CN3CCN(C)CC3)c(C(F)(F)F)c2)cc1C#Cc1cnc(N)c2ncccc12, the TGI falls from over 100 µM to 2.58 µM.

Compared with COc1cccc(-n2ncc3c(N/N=C/c4ccc(S(C)(=O)=O)cc4)ncnc32)c1, CCOC(=O)c1ccc(Nc2sc(C(=O)c3cccc([N+](=O)[O-])c3)c(N)c2C#N)cc1 is 3.6-fold lower in TGI: 16.5 µM for the first, 4.53 µM for the second.

Going from CC1(O)CC2(O)C=CC3=C(C(=O)c4cccc(O)c4C3=O)C2(O)C(=O)C1O (configuration not stated) to COc1cc(Cn2ccc3c2-c2oncc2CC3)cc(OC)c1, the TGI rises from 2.09 µM to 7 µM (3.3-fold).

Compared with O=C(NC(=S)NNC(=S)NNc1ccccc1)c1ccccc1, ICCC(c1ccccc1)(c1ccccc1)c1ccccc1 is lower in TGI: over 100 µM for the first, 13.3 µM for the second.

First: CCCCCCCCCCCC[n+]1ccccc1
Second: C=CC(=O)N1CCC([C@@H]2CCNc3c(C(N)=O)c(-c4ccc(Oc5ccccc5)cc4)nn32)CC1
The TGI of the first is 2.8-fold higher: 2.02 µM for the first, 0.711 µM for the second.

With Nc1ccn(C2CC(O)C(CO)O2)c(=O)n1 (configuration not stated) the TGI was over 5000 µM.

With CC1(C)CC(=O)c2c(ccc(C(=O)C[C@H](N)CO)c2N)O1 the TGI was 17.5 µM and 5.83 µM.
